Active and inactive are the calls of the source.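 The calls were made as follows: active = IC50 under 10 µM against human M5, lowering the acetylcholine-driven calcium signal; inactive = the rest.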

Sequence of Muscarinic acetylcholine receptor M5 (Homo sapiens) (P08912 whole entry, looked up): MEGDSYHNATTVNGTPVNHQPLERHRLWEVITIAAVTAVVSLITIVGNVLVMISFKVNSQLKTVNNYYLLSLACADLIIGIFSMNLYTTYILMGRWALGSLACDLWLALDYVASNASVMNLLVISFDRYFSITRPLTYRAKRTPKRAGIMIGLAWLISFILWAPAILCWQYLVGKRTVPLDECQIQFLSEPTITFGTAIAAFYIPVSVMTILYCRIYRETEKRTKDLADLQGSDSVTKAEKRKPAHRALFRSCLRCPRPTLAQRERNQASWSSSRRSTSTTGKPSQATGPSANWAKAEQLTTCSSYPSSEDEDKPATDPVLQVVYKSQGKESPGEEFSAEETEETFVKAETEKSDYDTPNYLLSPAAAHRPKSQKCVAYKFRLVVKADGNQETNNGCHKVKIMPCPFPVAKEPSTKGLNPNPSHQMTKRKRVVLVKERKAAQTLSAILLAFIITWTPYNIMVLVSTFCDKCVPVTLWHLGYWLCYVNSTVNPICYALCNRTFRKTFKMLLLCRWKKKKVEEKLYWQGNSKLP

One assay has as its target Muscarinic acetylcholine receptor M5 (Homo sapiens) (UniProt P08912). Description: potency of M5 ACh response inhibition – cell-based, concentration-response curves, human M5, dose response (AID 743026). The settings on record: CHO-K1 hM5, ACh EC80 calcium flux, Fluo-4.
Regarding `O=C(c1cccc(C(F)(F)F)c1)N1CCN2C(=O)c3ccccc3C12c1ccccc1` (centres undefined), the IC50 was 3000 nM. Turning to `O=C(c1ccc(SC(F)(F)F)cc1)N1CCN2C(=O)c3ccccc3C12c1ccc(Cl)cc1` (centres undefined), the IC50 was 3100 nM. Regarding `COc1ccc(C23c4ccccc4C(=O)N2CCN3C(=O)c2ccc(F)c(F)c2)cc1` (centres undefined), the half-inhibitory concentration (IC50) was 1260 nM.

On to `Cc1ccc(C23c4ccccc4C(=O)N2CCN3C(=O)c2ccc(SC(F)(F)F)cc2)cc1` (centres undefined), for which the half-inhibitory concentration (IC50) was 4040 nM. In the case of `O=C(c1ccc(SC(F)(F)F)cc1)N1CCN2C(=O)c3ccccc3C12c1ccccc1` (centres undefined), the half-inhibitory concentration (IC50) is 1390 nM. In the case of `COc1cccc(C(=O)N2CCN3C(=O)c4ccccc4C23c2ccc(Cl)cc2)c1` (centres undefined), the IC50 was 6580 nM.

On to `O=C(c1cc(F)cc(F)c1)N1CCN2C(=O)c3ccccc3C12c1ccccc1` (centres undefined), for which the IC50 was 3840 nM. In the case of `COc1ccc(C23c4ccccc4C(=O)N2CCN3C(=O)c2ccc(OC(F)(F)F)cc2)cc1` (centres undefined), the IC50 is 6740 nM.

On to `Cc1ccc(C23c4ccccc4C(=O)N2CCN3C(=O)c2ccc(F)c(F)c2)cc1` (centres undefined), for which the half-inhibitory concentration (IC50) is 2620 nM.

Turning to `CC(C)Oc1ccc(C(=O)N2CCN3C(=O)c4ccccc4C23c2ccc(Cl)cc2)cc1` (centres undefined), the half-maximal inhibitory concentration (IC50) is 790 nM. In the case of `Cc1ccc(C23c4ccccc4C(=O)N2CCN3C(=O)c2cc(F)cc(F)c2)cc1` (centres undefined), the IC50 was 2340 nM. `O=C(c1cc(F)cc(F)c1)N1CCN2C(=O)c3ccccc3C12c1ccc(Cl)cc1` (centres undefined): the half-inhibitory concentration (IC50) was 1070 nM. Same read-out and setting: under `Cc1ccc(C(=O)N2CCN3C(=O)c4ccccc4C23c2ccc(Cl)cc2)cc1` (centres undefined) stands 4160 nM; under `O=C(c1ccc(C(F)(F)F)cc1)N1CCN2C(=O)c3ccccc3C12c1ccc(Cl)cc1` (centres undefined), 2070 nM. `O=C(c1ccc(OC(F)(F)F)cc1)N1CCN2C(=O)c3ccccc3C12c1ccccc1` (centres undefined): the half-inhibitory concentration (IC50) was 4510 nM. Still for that read-out and setting: for `O=C(c1cc(Cl)cc(Cl)c1)N1CCN2C(=O)c3ccccc3C12c1ccccc1` (centres undefined) the value was 5810 nM; for `O=C(c1ccccc1)N1CCN2C(=O)c3ccccc3C12c1ccc(Cl)cc1` (centres undefined), 1630 nM.

Regarding `O=C(c1ccc(F)c(F)c1)N1CCN2C(=O)c3ccccc3C12c1ccccc1` (centres undefined), the IC50 is 1020 nM.

Turning to `O=C(c1ccc(SC(F)(F)F)cc1)N1CCN2C(=O)c3ccccc3C12c1ccc(F)cc1` (centres undefined), the IC50 is 1290 nM.

For the compound `O=C(c1ccc(C(F)(F)F)cc1)N1CCN2C(=O)c3ccccc3C12c1ccccc1` (centres undefined), the IC50 was 1950 nM. Same read-out and setting: for `O=C(c1ccc(OC(F)(F)F)cc1)N1CCN2C(=O)c3ccccc3C12c1ccc(Cl)cc1` (centres undefined) the value was 2360 nM; for `Cc1ccc(C23c4ccccc4C(=O)N2CCN3C(=O)c2ccc(OC(F)(F)F)cc2)cc1` (centres undefined), 3470 nM.

Consider `O=C(c1ccc(OC(F)F)cc1)N1CCN2C(=O)c3ccccc3C12c1ccc(Cl)cc1` (centres undefined), for which the 50% inhibitory concentration (IC50) is 4900 nM. `O=C(c1ccc(F)cc1)N1CCN2C(=O)c3ccccc3C12c1ccccc1` (centres undefined): the IC50 is 3430 nM. For the compound `C=CCOc1ccc(C23c4ccccc4C(=O)N2CCN3C(=O)c2ccc(F)c(F)c2)cc1` (centres undefined), the IC50 is 8930 nM. The same measure, in the same setting: for `CSc1ccc(C23c4ccccc4C(=O)N2CCN3C(=O)c2ccc(F)c(F)c2)cc1` (centres undefined) the value was 1510 nM. `O=C(c1cccc(C(F)(F)F)c1)N1CCN2C(=O)c3ccccc3C12c1ccc(F)cc1` (centres undefined): the 50% inhibitory concentration (IC50) was 2090 nM. With `O=C(c1cccc(C(F)(F)F)c1)N1CCN2C(=O)c3ccccc3C12c1ccc(Cl)cc1` (centres undefined), the 50% inhibitory concentration (IC50) is 4910 nM. Regarding `COc1ccc(C23c4ccccc4C(=O)N2CCN3C(=O)c2ccc(SC(F)(F)F)cc2)cc1` (centres undefined), the IC50 is 8060 nM. Still for that read-out and setting: for `O=C(c1ccc2c(c1)OCO2)N1CCN2C(=O)c3ccccc3C12c1ccc(Cl)cc1` (centres undefined) the value was 2120 nM.

Staying with this assay, now noted: CHO-K1 hM5, ACh EC80 calcium flux, Fluo-4; at 30 µM (top of the series).
For `O=C1c2ccccc2C2(c3ccccc3)NCCN12` (centres undefined), the “% of max ACh response” value was “inactive”. In the case of `O=C(c1ccc(F)cc1)N1CCN2C(=O)c3ncccc3C12c1ccccc1` (centres undefined), the “% of max ACh response” value was “inactive”. On to `C[C@H]1CN[C@]2(c3ccc(Cl)cc3)c3ccccc3C(=O)N12`, for which the “% of max ACh response” value is “inactive”.

As for `C[C@H]1CN(C(=O)c2ccc(F)c(F)c2)[C@]2(c3ccc(Cl)cc3)c3ccccc3C(=O)N12`, the “% of max ACh response” value is “inactive”. In the case of `O=C1CCC2(c3ccccc3)N1CCN2C(=O)c1ccc(F)cc1` (centres undefined), the “% of max ACh response” value was “inactive”. Same read-out and setting: under `O=C(c1ccc(F)cc1)N1CCN2C(=O)c3ccccc3C12c1ccc(Cl)cc1` (centres undefined) stands “inactive”; under `O=C(c1ccc(F)c(F)c1)N1CCN2C(=O)c3ncccc3C12c1ccccc1` (centres undefined), “inactive”.

On to `O=C1c2ncccc2C2(c3ccccc3)NCCN12` (centres undefined), for which the “% of max ACh response” value was “inactive”. As for `O=C(c1ccc(F)c(F)c1)N1CCCC1(c1ccccc1)c1ccc(Cl)cc1` (centres undefined), the “% of max ACh response” value was “inactive”.
